# Source: US20090163579A1, “Novel use of nutraceutical compositions” (priority 2006, published 2009)
# Test system: C57BLKS/J db/db mice
# Test: 3 months feeding study on muscle mass in db/db mice (NMR muscle mass, body weight, food intake)
# Format: in vivo
# Details: for effect on muscle loss (in words) / muscle mass increase: db/db mice, 3 months of treatment; for effect on muscle loss (in words) / muscle mass increase / BW (g), change from baseline / Muscle (g), change from baseline: 0.08% of diet; for muscle mass increase: control reduced by 2%; for BW (g), change from baseline / Muscle (g), change from baseline / BW (g), 5 months old mice / Muscle (g), 5 months old mice: male db/db mice, after 3 months of treatment; for BW (g), 5 months old mice / Muscle (g), 5 months old mice: 0.08% of diet as feed-ad-mix; for Muscle (g), 5 months old mice: total muscle mass by NMR
# Experimental: The efficacy of resveratrol, EGCG as well as the combination of both compounds on muscle mass was tested in a 3 months feeding study in C57BLKS/J db/db mice (n=20/group). C57BLKS/J db/db mice suffer from severe metabolic disorder due to a defect in the leptin receptor and loss muscle mass as they age. Muscle wasting has been associated with chronic metabolic derangements. Moreover, muscle wasting induced by a variety of means in both rodents and humans results in similar changes in muscle anatomy, cross-sectional area, function, fiber type switching, contractile protein expression, and histology. […] These agents include anabolic steroids, growth hormone, insulin-like growth factor 1, and beta adrenergic agonists. […] Therefore, the rodent model can be used to evaluate the efficacy of compounds inhibiting muscle wasting.
# Male db/db mice were obtained from Jackson Laboratory (Bar Harbor, Me., USA). Adult mice at the age of 8 weeks were used in the experiment. Mice were housed individually in plastic cages with bedding and allowed free access to standard rodent food and tap water. The animal rooms were controlled for temperature (24° C.), humidity (55%), and light (12-h light-dark cycle). The animals were randomized into four groups. Resveratrol and EGCG were administered as feed-ad-mix. Corn cellulose (1% of diet) served as a carrier substance for resveratrol and EGCG as well as a placebo when used alone. Group 1 received placebo, group 2 received a diet containing 0.08% of resveratrol; group 3 received a diet containing 0.08% of EGCG; and group 4 received a diet containing 0.08% of resveratrol and 0.08% of EGCG. Body weight and food intake were determined over the course of the study. Total muscle mass was determined by nuclear magnetic resonance (NMR) measurement after 3 months of treatment. There was no difference in food intake between the groups over the study period.
Compound,effect on muscle loss (in words),muscle mass increase [%],"BW (g), change from baseline [g]","Muscle (g), change from baseline [g]","BW (g), 5 months old mice [g]","Muscle (g), 5 months old mice [g]"
(−)-epigallocatechin gallate [EGCG],prevents muscle loss,3,1.0,0.5,31.4,16.2
"Oc1ccc(C=Cc2cc(O)cc(O)c2)cc1 [Resveratrol, resveratrol]",prevents muscle loss,6,3.9,1.0,34.2,17.0
